Measured values: patent US4824853A, “α,α-diaryl-4-aryl-4-hydroxy-1-piperidinebutanamide, N-oxides and method of treating diarrhea” (Janssen Pharmaceutica N.V., priority 1986, dated 1989)

Assays:
diarrhea [1] = assay: Castor Oil Test in Rats; assay type: in vivo, Female Wistar rats; settings: Rattus norvegicus; intravenous, 1 h before 1 ml castor oil orally; diarrhea absent in 50% of animals 2 hours after castor oil
Method: Female Wistar rats were fasted overnight. Each animal was treated intravenously with the desired dose of the compound to be tested. One hour thereafter, the animal received 1 ml of castor oil orally. Each animal was kept in an individual cage and 2 hours after the castor oil treatment, the presence or absence of diarrhea was noted. The ED50 value was determined as that dose in mg/kg body weight, at which no diarrhea was present in 50% of the tested animals. Said ED50 -value for a compound of the present invention and for 4-(4-chlorophenyl)-4-hydroxy-N,N-dimethyl-α,α-diphenyl-1-piperidinebutanamide, which compound is generically designated as loperamide and which is described in U.S. Pat. No. 3,714,159, can be found in table I.

tail withdrawal response = assay: Tail Withdrawal Test in Rats; assay type: in vivo, Female Wistar rats; settings: intravenous; for ED50: Rattus norvegicus, 55° C. water, response suppressed >10 seconds in 50% of animals, indicator of central effects
Method: Female Wistar rats were fasted overnight. Each animal was treated intravenously with the desired dose of the compound to be tested. The thus treated rats were put into individual restraining cages. After the administration of the test compound, the lower 5 cm portion of the tail was immersed into a cup filled with water at a constant temperature of 55° C. The typical tail withdrawal response was evaluated during a 10 seconds period after the immersion. ED50 values in mg/kg body weight were determined at that dose of the test compound capable of suppressing in 50% of the tested animals the typical tail withdrawal response during a time period exceeding 10 seconds.

[2] = Determination of toxicity; set-up: species or system Female Wistar rats; settings: rat, in vivo; dose lethal in 50% of tested animals; route not stated
Method: Female Wistar rats were treated with the compound to be tested at various dose levels. LD50 values were determined as that dose in mg/kg body weight being lethal in 50% of the tested animals. Said LD50 values obtained for a compound of the present invention and for 4-(4-chlorophenyl)-4-hydroxy-N,N-dimethyl-α,α-diphenyl-1-piperidinebutanamide (i.e. loperamide) are also listed in table I. From these value it can be concluded that the compounds of the present invention show a decreased toxicity.

[3] = Determination of the safety margin for the antidiarrheal action (LD50 / Castor Oil ED50); set-up: species or system Female Wistar rats; settings: rat, in vivo; ratio LD50 / ED50 Castor Oil Test
Method: (§1) The safety margin for the antidiarrheal action was determined as the ratio of the LD50 value to the ED50 value obtained in the Castor Oil Test. The antidiarrheal specificity was determined as the ratio of the ED50 value obtained in the Tail Withdrawal Test to the ED50 value obtained in the Castor Oil Test.

diarrhea [4] = assay: Determination of the antidiarrheal specificity (Tail Withdrawal ED50 / Castor Oil ED50); assay type: in vivo, Female Wistar rats; settings: ratio ED50 Tail Withdrawal Test / ED50 Castor Oil Test
Method: as §1

SMILES	ED50 (diarrhea [1]) [mg/kg]	ED50 (tail withdrawal response) [mg/kg]	typical tail withdrawal reflex antagonism (in words) (tail withdrawal response)	LD50 [2] [mg/kg]	selectivity ratio [3]	Antidiarrheal specificity (diarrhea [4])
CN(C)C(=O)C(CC[N+]1([O-])CCC(O)(c2ccc(Cl)cc2)CC1)(c1ccccc1)c1ccccc1 (stereo not drawn) [Compound 1, trans-4-(4-chlorophenyl)-4-hydroxy-N,N-dimethyl-α,α-diphenyl-1-piperidinebutanamide, N-oxide]	0.21	> 20	does not show such activity	28.3	135	> 95
CN(C)C(=O)C(CCN1CCC(O)(c2ccc(Cl)cc2)CC1)(c1ccccc1)c1ccccc1 [loperamide, 4-(4-chlorophenyl)-4-hydroxy-N,N-dimethyl-α,α-diphenyl-1-piperidinebutanamide]	0.095	2.83	antagonizes the typical tail withdrawal reflex	5.92	62.3	29.8
